Data taken from patent US7501113B2, “Aerosol formulations and aerosol delivery of buprenorphine” (priority 2003, dated 2009).
Values joined by “and” are separate entries in the source; they are usually repeats but may differ in a detail not shown here. Equal values may be shown once. Read-outs that look alike come from different tables or passages of the source.

Key:
[1] = Aerosol particle size determination, 10-stage MOUDI at 30 L/min with USP throat; assay type: physicochemical; details: for MMAD / Material Balance / Throat Deposition / Wall Losses / Throat Depositions: 5 mg/sec
Protocol: Aerosol particle size was determined using the 10-stage MOUDI operated at 30 L/min. The sample foils were placed in beakers, 10 mL of sample solvent was added, and the beakers swirled thoroughly. For the USP throat, 10 mL of sample solvent was added and shaken thoroughly. Wall losses were assessed by washing the MOUDI walls with a Kimwipe dipped in sample solvent. The same 10 mL of mobile phase was used to wash the walls of all the stages. The collected samples were analyzed.
(§1) Aerosol particle size was determined using the 10-stage MOUDI operated at 30 L/min. […] For the USP throat, 5 mL of sample solvent was added and shaken thoroughly. Wall losses were assessed by washing the MOUDI walls with a Kimwipe dipped in sample solvent. The same sample solvent was used to wash the walls of all the stages. The collected samples were analyzed using the assay method.
Aerosol particle size was determined using the 10-stage MOUDI operated at 30 L/min. For MOUDI runs 1-4, the sample foils were placed in beakers, 5 mL of sample solvent was added, and the beakers swirled thoroughly. For the USP throat, 5 mL of sample solvent was added and shaken thoroughly. Wall losses were assessed by washing the MOUDI walls with a Kimwipe dipped in sample solvent. The same 5 mL of sample solvent was used to wash the walls of all the stages. The collected samples were analyzed using the assay method. For MOUDI runs 5-9, the procedure was the same as above except distilled deionized water was used in place of the sample solvent. This was done to allow for simultaneous PG particle size analysis. Two actuations were used for all MOUDI runs with the exception of MOUDI runs 1 and 7.
Aerosol particle size was determined using the 10-stage MOUDI operated at 30 L/min. […] For the USP throat, 10 mL of sample solvent was added and shaken thoroughly. Wall losses were assessed by washing the MOUDI walls with a Kimwipe dipped in sample solvent. The same sample solvent was used to wash the walls of all the stages. The collected samples were analyzed using the assay method.
as §1

[2] = Emitted dose and fine particle fraction; assay type: physicochemical; details: formulation % w/v: buprenorphine 0.2, buspirone 2.0, cyclobenzaprine 2.0, triazolam 0.1, zolpidem 0.2; for Avg. Emitted Dose per Actuation: 10 second actuations, average of n=3-5 runs; for Avg. FPF: fine particle fraction = percent of total dose collected less than 5.6 microns, n=3-5 runs
[3] = 5 mg/sec
Protocol: Sham determinations were performed for each set of experiments to determine an “expected” amount of active per capillary aerosol generator (CAG) activation. This was performed by running the equipment at a target resistance of 0.2 ohms, which pumped out the solution of buspirone in PG as a liquid instead of an aerosol. The result was collected on a Kimwipe which was placed into sample solvent and sonicated. This process was performed in triplicate. Two solution concentrations of about 0.5% and about 2% of buspirone in PG were prepared.
(§2) Dose capture determinations were conducted (Table 1). For dose capture runs 1-6, the device was actuated once, the aerosol collected in acidified water, diluted to 40 mL. Runs 7-12 were performed as above, except distilled de-ionized water was used instead of acidified water. For runs 13-33, the device was actuated 4 times, the aerosol was collected in 8 mL of sample solvent, and analyzed for buspirone and degradation products using the “stability indicating” assay. Intact buspirone was calculated. The extent of degradation was evaluated by assuming that the degradation products had similar extinction coefficients as the parent at the wavelength of interest.
The result was collected on a Kimwipe, placed into sample solvent and sonicated. This process was performed in triplicate and was analyzed with other analytical samples.
(§3) Dose capture determinations were conducted.
Sham determinations were performed for each set of experiments to determine an “expected” amount of active per CAG activation. […] This was collected on a Kimwipe which was placed into sample solvent and sonicated. The process was performed in triplicate and was analyzed with other analytical samples.
(§4) Dose capture determinations were conducted (Table 6). For dose capture runs 1-3, the device was actuated once, the aerosol collected in 10 mL of sample solvent and analyzed using the “stability indicating” method. Runs 4-9 were performed as above except the device was actuated twice and collected in 10 mL of sample solvent. […] The extent of degradation was evaluated by assuming that the degradation products had similar extinction coefficients as the parent at the wavelength of interest.
Sham determinations were performed for each set of experiments to determine an “expected” amount of active per CAG activation. […] This was collected on a Kimwipe which was placed into sample solvent and sonicated. This process was performed in triplicate and was analyzed with other analytical samples.
(§5) Dose capture determinations were conducted. […] The extent of degradation was evaluated by assuming that the degradation products had similar extinction coefficients as the parent at the wavelength of interest.
Sham determinations were performed for each set of experiments to determine an “expected” amount of active per CAG activation. This was performed by running the equipment at a target resistance of 0.2 ohms. […] This was collected on a Kimwipe which was placed into sample solvent and sonicated. This process was performed in triplicate and was analyzed with other analytical samples.

[4] = 2 % in PG
Protocol: (§6) Buspirone was dissolved in acidic and basic solutions and heated to 50 degrees Celsius for 1 hour to promote acid and base catalyzed hydrolysis. Buspirone was also subjected to peroxide with heating to 50 degrees Celsius for 1 hour to promote oxidation. As a final stability check, solid buspirone was subjected to heating with a differential scanning calorimeter. Conditions were optimized to produce thermal degradation products by heating to 350 degrees Celsius.
as §2
(§7) After evaluation of the data, it was determined that buspirone should be thermally stressed with a DSC to produce a degradation profile thought to be more representative of buspirone degradation after aerosolization via the CAG. In doing so, thermal degradation products were produced under the conditions stated above. This provided an indication of retention times for potential degradation products of buspirone after aerosolization using the CAG.
(§8) Buprenorphine was subjected to heating with a differential scanning calorimeter.
as §3
(§9) Conditions were optimized to produce thermal degradation products by heating to 350 degrees Celsius.
as §4
(§10) Thermal degradation products were produced under the conditions stated above.
(§11) Conditions were optimized to produce thermal degradation products by heating to 300 degrees Celsius.
as §5

[5] = Degradation determination after aerosolization (stability indicating assay); details: zolpidem 0.2% in PG, target resistance 0.600 ohms, runs 5-9
Protocol: as §6, §2, §7, §8, §3, §9, §4, §10, §11, §5

[6] = buspirone 0.5% in PG, target resistance 0.600 ohms
[7] = buspirone 0.5% in PG, target resistance 0.610 ohms, monohydrochloride
[8] = buspirone 2.0% in PG, target resistance 0.590 ohms
[9] = buspirone 2.0% in PG, target resistance 0.595 ohms
[10] = buspirone 2.0% in PG, target resistance 0.600 ohms, monohydrochloride
[11] = buspirone 2.0% in PG, target resistance 0.605 ohms, runs 11-15, listed as buspirone, monohydrochloride
[12] = buspirone 2.0% in PG, target resistance 0.605 ohms, runs 11-15, monohydrochloride
[13] = buspirone 2.0% in PG, target resistance 0.610 ohms
[14] = cyclobenzaprine 2.0% in PG, target resistance 0.595 ohms, 1 actuation
[15] = triazolam 0.1% in PG, target resistance 0.590 ohms
[16] = triazolam 0.1% in PG, target resistance 0.595 ohms
[17] = triazolam 0.1% in PG, target resistance 0.600 ohms
[18] = triazolam 0.1% in PG, target resistance 0.605 ohms, runs 5-9
[19] = zolpidem 0.2% in PG, target resistance 0.590 ohms, 1 actuation
[20] = zolpidem 0.2% in PG, target resistance 0.600 ohms, 1 actuation

Cl.O=C1CC2(CCCC2)CC(=O)N1CCCCN1CCN(c2ncccn2)CC1 [Buspirone, 8-[4-[4-(2-pyrimidinyl)-1-piperazinyl]butyl]-8-azaspiro[4,5]decane-7,9-dione monohydrochloride]
MMAD [1, 6]: 0.31 microns | Material Balance [1, 6]: 100% | Throat Deposition [1, 6]: 7% | Wall Losses [1, 6]: 2% | Wall Losses ([1]; buspirone 0.5% in PG, target resistance 0.610 ohms): 4% | MMAD [1, 7]: 0.30 microns and 0.47 microns and 0.32 microns and 0.29 microns | Throat Deposition [1, 7]: 10% and 3% and 6% and 4% | recovered buspirone found on the throat ([1]; buspirone 2.0% in PG, energies approximately 77 J, runs 8 and 10): greater than 40% | MMAD [1, 8]: 0.54 microns | Material Balance [1, 8]: 11% | Throat Deposition [1, 8]: 44% | Wall Losses [1, 8]: 6% | MMAD [1, 9]: 0.46 microns | Material Balance [1, 9]: 91% | Throat Deposition [1, 9]: 44% | Wall Losses [1, 9]: 1% | MMAD [1, 10]: 0.30 microns and 0.48 microns | Material Balance [1, 10]: 100% and 98% | Wall Losses [1, 10]: 2% and 4% | MMAD [1, 11]: approximately 0.30 microns | Material Balance [1, 11]: exceeded 100% | Throat Deposition [1, 11]: less than 5% | MMAD [1, 12]: 0.31 microns and 0.30 microns and 0.29 microns and 0.32 microns | Material Balance [1, 12]: 105% and 108% and 102% and 107% and 111% | Throat Deposition [1, 12]: 4% and 1% and 3% and 2% | Wall Losses [1, 12]: 4% and 3% and 9% | MMAD [1, 13]: 0.30 microns | Material Balance [1, 13]: 98% | Throat Deposition [1, 13]: 14% | Wall Losses [1, 13]: 1% | Avg. Emitted Dose per Actuation [2]: 1010.44 µg | Avg. FPF [2]: 91.60 % of Emitted | Dose Capture ([3]; buspirone 2.0% in PG, target resistance 0.595 ohms, runs 13-15, mean): 102^1% | Dose Capture ([3]; buspirone 2.0% in PG, target resistance 0.600 ohms, runs 24-28, mean): 105^3% | Dose Capture ([3]; buspirone 2.0% in PG, target resistance 0.605 ohms, about 90 J, runs 29-33, mean, listed as buspirone, monohydrochloride): 104% | Dose Capture ([3]; buspirone 2.0% in PG, target resistance 0.605 ohms, about 90 J, runs 29-33, mean, monohydrochloride): 104^3% | Dose Capture ([3]; buspirone 2.0% in PG, target resistance 5.90 ohms, runs 7-9, mean of 3): 9^1% | average degradation of the active [4]: 0.25% | major degradation peak, share of degradation observed [4]: approximately 0.09% | other 8 degradation peaks, each [4]: approximately 0.02%

CN(C)CCC=C1c2ccccc2C=Cc2ccccc21 [Cyclobenzaprine, 3-(5H-Dibenzo[a,d]cyclohepten-5-ylidene)-N,N-dimethyl-1-propanamine]
MMAD [1, 14]: 0.330 microns and 0.329 microns and 0.343 microns and 0.333 microns and 0.336 microns and 0.256^2 microns | Material Balance [1, 14]: 92.04% and 91.03% and 93.48% and 99.10% and 93.99% and 61.98^2% | Throat Depositions [1, 14]: 3.45% and 3.39% and 5.55% and 2.59% and 3.09% and 4.89^2% | Wall Losses [1, 14]: 0.81% and 1.12% and 2.33% and 1.98% and 2.26% and 1.99^2% | Throat Depositions ([1]; cyclobenzaprine 2.0% in PG, target resistance 0.595 ohms, 1 actuation, listed as cyclobenzaprine): less than 4% | average MMAD ([1]; cyclobenzaprine 2.0% in PG, target resistance 0.595 ohms, approximately 71 J, runs 1-6 excluding run 3): approximately 0.33 microns | Avg. Emitted Dose per Actuation [2]: 836.16 µg | Avg. FPF [2]: 94.35 % of Emitted | Dose Capture ([3]; cyclobenzaprine 2.0% in PG, target resistance 0.595 ohms, about 73 J, 1 actuation, listed as cyclobenzaprine): > 95% | Dose Capture ([3]; cyclobenzaprine 2.0% in PG, target resistance 0.610 ohms, 1 actuation): 109.93% | average degradation [4]: less than 0.3%

Cc1nnc2n1-c1ccc(Cl)cc1C(c1ccccc1Cl)=NC2 [Triazolam, 8-chloro-6-(2-chlorophenyl)-1-methyl-4H-[1,2,4]triazolo[4,3-a][1,4]benzodiazepine]
MMAD [1, 15]: 0.847 microns and 0.642^3 microns | Material Balance [1, 15]: 74.08% and 108.22^3% | Wall Losses [1, 15]: 15.51^3% | Throat Deposition ([1]; triazolam 0.1% in PG, target resistance 0.590 ohms, approximately 70 J, runs 1 and 2): 33.14% and 39.28^3% | Throat Deposition ([1]; triazolam 0.1% in PG, target resistance 0.590 ohms, approximately 70 J, runs 1 and 2, listed as triazolam): greater than 30% | MMAD [1, 16]: 0.414^3 microns | Material Balance [1, 16]: 98.50^3% | Throat Deposition [1, 16]: 3.66^3% | Wall Losses [1, 16]: 6.69^3% | MMAD [1, 17]: 0.378^3 microns | Material Balance [1, 17]: 104.22^3% | Throat Deposition [1, 17]: 2.96^3% | Wall Losses [1, 17]: 11.04^3% | MMAD [1, 18]: 0.511^3 microns and 0.431^3 microns and 0.483 microns and 0.444^3 microns and 0.446^3 microns | Material Balance [1, 18]: 102.10^3% and 96.32^3% and 107.02% and 91.60^3% and 101.09^3% | Throat Deposition [1, 18]: 2.43^3% and 1.35^3% and 2.87% and 2.47^3% and 1.97^3% | Throat Deposition ([1]; triazolam 0.1% in PG, target resistance 0.605 ohms, runs 5-9, listed as triazolam): less than 3% | average MMAD ([1]; triazolam 0.1% in PG, target resistance 0.605 ohms, approximately 90 J, runs 5-9): approximately 0.46 microns | Avg. Emitted Dose per Actuation [2]: 46.46 µg | Avg. FPF [2]: 86.16 % of Emitted | Dose Capture ([3]; triazolam 0.1% in PG, target resistance 0.605 ohms, about 90 J, runs 10-14, mean of 15): 90^2% | Dose Capture ([3]; triazolam 0.1% in PG, target resistance 0.605 ohms, about 90 J, runs 10-14, mean of 15, listed as triazolam): 90% | Dose Capture ([3]; triazolam 0.1% in PG, target resistance 0.610 ohms): 86%

Cc1ccc(-c2nc3ccc(C)cn3c2CC(=O)N(C)C)cc1 [Zolpidem, N,N,6-Trimethyl-2-(4-methylphenyl)-imidazo[1,2-a]pyridine-3-acetamide]
MMAD [1, 19]: 0.464 microns | Material Balance [1, 19]: 64.51% | Throat Deposition [1, 19]: 5.36% | Wall Losses [1, 19]: 1.68% | MMAD [1, 20]: 0.481 microns and 0.459 microns and 0.420 microns and 0.421 microns and 0.404 microns and 0.431 microns | Material Balance [1, 20]: 100.06% and 90.77% and 97.74% and 95.83% and 101.56% and 93.04% | Throat Deposition [1, 20]: 3.97% and 0.12% and 0.62% and 1.27% and 0.21% and 1.95% | Wall Losses [1, 20]: 6.18% and 2.67% and 3.55% and 3.85% and 0.90% and 1.35% | average MMAD ([1]; zolpidem 0.2% in PG, target resistance 0.600 ohms, approximately 75 J, runs 5-8): approximately 0.45 microns | Avg. Emitted Dose per Actuation [2]: 92.55 µg | Avg. FPF [2]: 93.25 % of Emitted | Percent Degradation [5]: 0.26% and 0.02% and 0.00% and 0.03% and 0.16% | average degradation [5]: less than 0.1%
